According to the kinase profiling compilation of Christmann-Franck et al. (2016):
Where “and” joins values, the source holds several entries; their conditions need not be identical. Equal values may be shown once.

Key:
Assay in all cases: radiometric filter-binding kinase assay, Kinase HotSpot
Conditions in all cases: compound 0.5 µM; ATP 10 µM
PRKCZ (human) = PRKCZ (human) (UniProt Q05513)
ROS1 (human) = ROS1 (human) (UniProt P08922)
[1] = biological target: JAK1 JH1 catalytic (human) (UniProt P23458)
TLK2 (human) = TLK2 (human) (UniProt Q86UE8)
MAPK8 (human) = MAPK8 (human) (UniProt P45983)
PRKACG (human) = PRKACG (human) (UniProt P22612)
TYRO3 (human) = TYRO3 (human) (UniProt Q06418)
DSTYK (human) = DSTYK (human) (UniProt Q6XUX3)
PRKCG (human) = PRKCG (human) (UniProt P05129)
PKN1 (human) = PKN1 (human) (UniProt Q16512)
STK38 (human) = STK38 (human) (UniProt Q15208)
CSNK2A2 (human) = CSNK2A2 (human) (UniProt P19784)
CDK3 CCNE1 (human) = CDK3 CCNE1 (human) (UniProt Q00526+P24864)
INSRR (human) = INSRR (human) (UniProt P14616)
CSNK1G3 (human) = CSNK1G3 (human) (UniProt Q9Y6M4)
EPHA6 (human) = EPHA6 (human) (UniProt Q9UF33)
ULK3 (human) = ULK3 (human) (UniProt Q6PHR2)
PRKCE (human) = PRKCE (human) (UniProt Q02156)
PASK (human) = PASK (human) (UniProt Q96RG2)
EPHA8 (human) = EPHA8 (human) (UniProt P29322)
RPS6KA1 KD1 KD2 (human) = RPS6KA1 KD1 KD2 (human) (UniProt Q15418)
MARK4 (human) = MARK4 (human) (UniProt Q96L34)
CSNK1A1 (human) = CSNK1A1 (human) (UniProt P48729)
CAMK2B (human) = CAMK2B (human) (UniProt Q13554)
ITK (human) = ITK (human) (UniProt Q08881)
SRC (human) = SRC (human) (UniProt P12931)
CHEK1 (human) = CHEK1 (human) (UniProt O14757)
TAOK1 (human) = TAOK1 (human) (UniProt Q7L7X3)
PDGFRB (human) = PDGFRB (human) (UniProt P09619)
MAPK3 (human) = MAPK3 (human) (UniProt P27361)
PRKG1 (human) = PRKG1 (human) (UniProt Q13976)
STK25 (human) = STK25 (human) (UniProt O00506)
EGFR (human) = EGFR (human) (UniProt P00533)
ABL1 (human) = ABL1 (human) (UniProt P00519)
CLK4 (human) = CLK4 (human) (UniProt Q9HAZ1)
RPS6KA2 KD1 KD2 (human) = RPS6KA2 KD1 KD2 (human) (UniProt Q15349)
DYRK2 (human) = DYRK2 (human) (UniProt Q92630)
NUAK2 (human) = NUAK2 (human) (UniProt Q9H093)
MYO3B (human) = MYO3B (human) (UniProt Q8WXR4)
BRAF (human) = BRAF (human) (UniProt P15056)
[2] = test system: ARAF (human), P10398 [Y301D/Y302D]

RPS6KA1 KD1 KD2 (human), sequence (Q15418 whole entry, looked up): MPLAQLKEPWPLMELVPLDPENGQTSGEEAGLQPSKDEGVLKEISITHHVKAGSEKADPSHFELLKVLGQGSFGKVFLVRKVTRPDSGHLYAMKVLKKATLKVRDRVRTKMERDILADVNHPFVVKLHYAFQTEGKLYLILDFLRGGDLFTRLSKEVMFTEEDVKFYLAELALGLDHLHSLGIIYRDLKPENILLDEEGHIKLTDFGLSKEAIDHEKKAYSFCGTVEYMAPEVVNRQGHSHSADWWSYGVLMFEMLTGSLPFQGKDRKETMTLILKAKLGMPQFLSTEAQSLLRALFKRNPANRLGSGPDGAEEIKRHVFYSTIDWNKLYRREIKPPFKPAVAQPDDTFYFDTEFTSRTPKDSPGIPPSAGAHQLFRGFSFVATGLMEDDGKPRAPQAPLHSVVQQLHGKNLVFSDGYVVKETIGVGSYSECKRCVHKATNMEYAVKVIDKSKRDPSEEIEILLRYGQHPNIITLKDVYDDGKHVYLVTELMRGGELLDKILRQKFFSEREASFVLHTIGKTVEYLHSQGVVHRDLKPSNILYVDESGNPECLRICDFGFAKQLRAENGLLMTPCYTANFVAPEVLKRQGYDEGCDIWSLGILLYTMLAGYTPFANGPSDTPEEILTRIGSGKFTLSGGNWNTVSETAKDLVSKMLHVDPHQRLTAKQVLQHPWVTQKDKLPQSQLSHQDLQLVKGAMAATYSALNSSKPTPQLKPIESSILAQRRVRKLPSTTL
ITK (human), sequence (Q08881 whole entry, looked up): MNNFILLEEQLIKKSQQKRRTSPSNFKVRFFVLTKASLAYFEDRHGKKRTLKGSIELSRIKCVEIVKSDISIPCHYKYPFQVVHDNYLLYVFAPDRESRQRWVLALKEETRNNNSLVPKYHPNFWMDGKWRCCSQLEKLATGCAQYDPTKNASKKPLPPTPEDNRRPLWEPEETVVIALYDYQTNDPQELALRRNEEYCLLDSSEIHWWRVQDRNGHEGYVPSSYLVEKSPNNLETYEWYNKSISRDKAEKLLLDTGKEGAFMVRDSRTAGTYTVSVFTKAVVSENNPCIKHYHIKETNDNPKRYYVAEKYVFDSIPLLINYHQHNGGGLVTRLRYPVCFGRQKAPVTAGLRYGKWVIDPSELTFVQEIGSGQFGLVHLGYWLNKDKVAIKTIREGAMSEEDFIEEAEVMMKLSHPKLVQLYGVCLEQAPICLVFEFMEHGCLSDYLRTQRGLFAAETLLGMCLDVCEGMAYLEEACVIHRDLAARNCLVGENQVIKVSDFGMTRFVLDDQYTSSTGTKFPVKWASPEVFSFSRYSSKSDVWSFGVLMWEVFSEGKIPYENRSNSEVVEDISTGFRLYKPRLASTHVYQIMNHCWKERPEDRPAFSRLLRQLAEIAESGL
PRKG1 (human), sequence (Q13976 whole entry, looked up): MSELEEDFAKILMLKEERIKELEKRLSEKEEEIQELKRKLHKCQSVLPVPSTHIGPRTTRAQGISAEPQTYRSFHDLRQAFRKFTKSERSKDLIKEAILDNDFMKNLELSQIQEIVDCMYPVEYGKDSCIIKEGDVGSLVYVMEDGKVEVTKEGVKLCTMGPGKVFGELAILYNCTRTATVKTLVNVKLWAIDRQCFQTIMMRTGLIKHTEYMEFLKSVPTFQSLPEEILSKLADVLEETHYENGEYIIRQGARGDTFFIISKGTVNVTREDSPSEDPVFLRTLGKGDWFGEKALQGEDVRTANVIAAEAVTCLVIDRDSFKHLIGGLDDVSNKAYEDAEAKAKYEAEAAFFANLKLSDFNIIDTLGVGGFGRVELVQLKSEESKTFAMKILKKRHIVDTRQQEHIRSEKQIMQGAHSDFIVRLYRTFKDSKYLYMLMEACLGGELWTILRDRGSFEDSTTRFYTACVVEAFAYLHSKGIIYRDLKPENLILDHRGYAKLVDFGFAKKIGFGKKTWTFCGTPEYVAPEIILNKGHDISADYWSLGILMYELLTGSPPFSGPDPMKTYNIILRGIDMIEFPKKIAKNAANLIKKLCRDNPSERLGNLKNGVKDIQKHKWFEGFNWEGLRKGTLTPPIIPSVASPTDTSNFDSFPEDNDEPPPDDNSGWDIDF
STK25 (human), sequence (O00506 whole entry, looked up): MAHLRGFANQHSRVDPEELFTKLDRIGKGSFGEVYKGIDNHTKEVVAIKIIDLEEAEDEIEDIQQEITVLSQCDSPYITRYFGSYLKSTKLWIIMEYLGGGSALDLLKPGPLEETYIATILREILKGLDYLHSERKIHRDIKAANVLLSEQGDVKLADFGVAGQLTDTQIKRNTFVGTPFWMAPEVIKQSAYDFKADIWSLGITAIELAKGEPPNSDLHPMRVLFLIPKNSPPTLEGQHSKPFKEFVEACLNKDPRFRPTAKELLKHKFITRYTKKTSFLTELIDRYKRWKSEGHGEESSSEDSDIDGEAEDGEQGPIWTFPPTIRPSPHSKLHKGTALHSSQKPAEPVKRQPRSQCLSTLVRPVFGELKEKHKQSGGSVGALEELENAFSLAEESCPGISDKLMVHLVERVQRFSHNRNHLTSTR
ROS1 (human), sequence (P08922 whole entry, looked up): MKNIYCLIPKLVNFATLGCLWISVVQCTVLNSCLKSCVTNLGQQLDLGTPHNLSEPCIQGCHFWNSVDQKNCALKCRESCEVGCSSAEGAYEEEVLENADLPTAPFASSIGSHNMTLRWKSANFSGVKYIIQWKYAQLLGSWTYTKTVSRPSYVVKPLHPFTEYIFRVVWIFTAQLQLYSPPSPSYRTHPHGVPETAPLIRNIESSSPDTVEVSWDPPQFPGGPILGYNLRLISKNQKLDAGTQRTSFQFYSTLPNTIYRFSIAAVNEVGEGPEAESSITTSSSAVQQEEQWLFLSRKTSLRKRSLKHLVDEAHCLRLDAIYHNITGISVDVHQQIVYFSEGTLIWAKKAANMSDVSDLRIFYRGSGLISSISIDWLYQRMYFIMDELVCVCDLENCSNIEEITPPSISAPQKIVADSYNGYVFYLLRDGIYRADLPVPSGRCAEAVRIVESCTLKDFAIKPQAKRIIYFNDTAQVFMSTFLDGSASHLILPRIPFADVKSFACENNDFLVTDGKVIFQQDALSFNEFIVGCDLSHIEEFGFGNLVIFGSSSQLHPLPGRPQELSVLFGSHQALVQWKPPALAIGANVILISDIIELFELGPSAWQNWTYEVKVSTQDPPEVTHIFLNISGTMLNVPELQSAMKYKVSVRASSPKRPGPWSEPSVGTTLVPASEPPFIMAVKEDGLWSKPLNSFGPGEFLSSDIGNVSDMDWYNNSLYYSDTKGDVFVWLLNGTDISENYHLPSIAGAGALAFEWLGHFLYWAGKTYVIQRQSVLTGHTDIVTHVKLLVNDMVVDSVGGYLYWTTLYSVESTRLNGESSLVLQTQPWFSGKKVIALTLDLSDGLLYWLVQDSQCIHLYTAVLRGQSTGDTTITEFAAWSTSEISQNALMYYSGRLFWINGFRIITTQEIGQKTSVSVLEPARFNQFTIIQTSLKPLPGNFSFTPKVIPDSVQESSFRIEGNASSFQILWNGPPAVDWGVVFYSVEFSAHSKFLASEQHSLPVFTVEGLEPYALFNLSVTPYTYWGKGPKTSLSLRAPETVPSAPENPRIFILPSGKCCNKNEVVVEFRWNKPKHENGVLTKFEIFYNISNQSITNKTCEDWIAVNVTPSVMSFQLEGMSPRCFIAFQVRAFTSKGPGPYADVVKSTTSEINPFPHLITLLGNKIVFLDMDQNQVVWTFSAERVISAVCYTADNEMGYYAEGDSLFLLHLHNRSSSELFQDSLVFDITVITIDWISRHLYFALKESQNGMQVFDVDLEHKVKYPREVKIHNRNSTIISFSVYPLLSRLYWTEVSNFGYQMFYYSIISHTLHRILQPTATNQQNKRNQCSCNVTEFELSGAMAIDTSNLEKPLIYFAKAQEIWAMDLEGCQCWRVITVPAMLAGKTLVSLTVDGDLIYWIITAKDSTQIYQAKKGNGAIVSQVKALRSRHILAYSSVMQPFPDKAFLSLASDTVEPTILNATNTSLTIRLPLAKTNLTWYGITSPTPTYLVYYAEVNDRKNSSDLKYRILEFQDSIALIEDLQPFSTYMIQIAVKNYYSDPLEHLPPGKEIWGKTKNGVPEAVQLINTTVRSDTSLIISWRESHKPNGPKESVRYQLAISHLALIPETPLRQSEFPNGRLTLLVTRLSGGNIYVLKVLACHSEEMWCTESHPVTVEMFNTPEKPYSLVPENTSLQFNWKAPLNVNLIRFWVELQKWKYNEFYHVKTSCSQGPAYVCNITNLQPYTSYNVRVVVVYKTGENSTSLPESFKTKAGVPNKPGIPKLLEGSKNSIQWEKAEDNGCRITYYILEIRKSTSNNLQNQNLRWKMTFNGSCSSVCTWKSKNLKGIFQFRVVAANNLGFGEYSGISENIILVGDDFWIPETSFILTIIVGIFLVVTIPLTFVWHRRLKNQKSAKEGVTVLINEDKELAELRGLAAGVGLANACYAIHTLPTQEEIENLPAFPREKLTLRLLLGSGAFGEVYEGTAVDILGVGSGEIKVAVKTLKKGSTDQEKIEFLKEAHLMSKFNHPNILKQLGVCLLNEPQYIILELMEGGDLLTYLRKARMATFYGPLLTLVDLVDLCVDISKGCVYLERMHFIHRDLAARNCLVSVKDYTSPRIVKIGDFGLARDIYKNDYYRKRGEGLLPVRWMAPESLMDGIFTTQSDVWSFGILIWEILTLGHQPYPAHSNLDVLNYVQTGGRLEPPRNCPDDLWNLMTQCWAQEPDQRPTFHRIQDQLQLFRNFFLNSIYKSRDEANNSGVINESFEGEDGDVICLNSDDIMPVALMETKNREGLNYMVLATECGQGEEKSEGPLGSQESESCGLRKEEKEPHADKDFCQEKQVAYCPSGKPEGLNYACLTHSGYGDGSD

With `COc1cc2nccc(Oc3ccc(NC(=S)NC(=O)c4ccccc4C)cc3)c2cc1OC` the residual activity (PRKCZ (human)) was 96.9%, the residual activity (ROS1 (human)) was 26.7% and the residual activity [1] was 96.7%. It also gave a residual activity (TLK2 (human)) of 85.3%, a residual activity (MAPK8 (human)) of 81.3% and a residual activity (PRKACG (human)) of 107%. The residual activity (TYRO3 (human)) was 92.2%, the residual activity (DSTYK (human)) was 112% and the residual activity (PRKCG (human)) was 100%. The residual activity (PKN1 (human)) was 99.2%, the residual activity (STK38 (human)) was 107% and the residual activity (CSNK2A2 (human)) was 96.6%. It also gave a residual activity (CDK3 CCNE1 (human)) of 86.6%, a residual activity (INSRR (human)) of 98.2% and a residual activity (CSNK1G3 (human)) of 93.3%. For the same compound, the residual activity (EPHA6 (human)) was 33%, the residual activity (ULK3 (human)) was 86.8% and the residual activity (PRKCE (human)) was 99.7%. For the same compound, the residual activity (PASK (human)) was 93.6%, the residual activity (EPHA8 (human)) was 84.1% and the residual activity (RPS6KA1 KD1 KD2 (human)) was 97.3%. It also gave a residual activity (MARK4 (human)) of 73.3%, a residual activity (CSNK1A1 (human)) of 96.3% and a residual activity (CAMK2B (human)) of 104%. The residual activity (ITK (human)) was 80.6%, the residual activity (SRC (human)) was 71.7% and the residual activity (CHEK1 (human)) was 95.1%. It also gave a residual activity (TAOK1 (human)) of 71.3%, a residual activity (PDGFRB (human)) of 26.7% and a residual activity (MAPK3 (human)) of 106%. The residual activity (PRKG1 (human)) was 101% and 91.6%, the residual activity (STK25 (human)) was 103% and the residual activity (EGFR (human)) was 89.7%. It also gave a residual activity (ABL1 (human)) of 50.6%, a residual activity (CLK4 (human)) of 87.8% and a residual activity (RPS6KA2 KD1 KD2 (human)) of 91.1%. The residual activity (DYRK2 (human)) was 87.5%, the residual activity (NUAK2 (human)) was 106% and the residual activity (MYO3B (human)) was 83.4%.

With `COc1cc2ncnc(Nc3ccc(F)c(Cl)c3)c2cc1OCCCN1CCOCC1` the residual activity (PRKCZ (human)) was 92.5%, the residual activity (ROS1 (human)) was 92.3% and the residual activity [1] was 102%. It also gave a residual activity (TLK2 (human)) of 80.4%, a residual activity (MAPK8 (human)) of 93.1% and a residual activity (PRKACG (human)) of 107%. The residual activity (TYRO3 (human)) was 94.9%, the residual activity (DSTYK (human)) was 101% and the residual activity (PRKCG (human)) was 84.2%. It also gave a residual activity (BRAF (human)) of 95.8%, a residual activity (PKN1 (human)) of 105% and a residual activity (STK38 (human)) of 105%. The residual activity (CSNK2A2 (human)) was 88.6%, the residual activity (CDK3 CCNE1 (human)) was 95% and the residual activity (INSRR (human)) was 112%. For the same compound, the residual activity (CSNK1G3 (human)) was 103%, the residual activity (EPHA6 (human)) was 28.9% and the residual activity (ULK3 (human)) was 108%. For the same compound, the residual activity (PRKCE (human)) was 97.3%, the residual activity (PASK (human)) was 97.9% and the residual activity (EPHA8 (human)) was 84.5%. The residual activity (RPS6KA1 KD1 KD2 (human)) was 97.3%, the residual activity (MARK4 (human)) was 94.2% and the residual activity (CSNK1A1 (human)) was 98.6%. For the same compound, the residual activity (CAMK2B (human)) was 95.4%, the residual activity (ITK (human)) was 99.9% and the residual activity (CHEK1 (human)) was 95.3%. The residual activity [2] was 95.3%, the residual activity (TAOK1 (human)) was 103% and the residual activity (PDGFRB (human)) was 93.9%. The residual activity (MAPK3 (human)) was 100%, the residual activity (PRKG1 (human)) was 103% and 87.5% and the residual activity (STK25 (human)) was 97.4%. The residual activity (CLK4 (human)) was 107%, the residual activity (RPS6KA2 KD1 KD2 (human)) was 82.3% and the residual activity (DYRK2 (human)) was 98.2%. The residual activity (NUAK2 (human)) was 96% and the residual activity (MYO3B (human)) was 91.4%.

`Cc1cc2ncc(-c3ccccc3)nc2cc1C` was tested, and the residual activity (PRKCZ (human)) was 88.6%, the residual activity (ROS1 (human)) was 100% and the residual activity [1] was 103%. The residual activity (TLK2 (human)) was 100%, the residual activity (MAPK8 (human)) was 101% and the residual activity (PRKACG (human)) was 95.8%. The residual activity (TYRO3 (human)) was 90.9%, the residual activity (DSTYK (human)) was 95.5% and the residual activity (PRKCG (human)) was 96.9%. The residual activity (PKN1 (human)) was 92.5%, the residual activity (STK38 (human)) was 94.7% and the residual activity (CSNK2A2 (human)) was 90.3%. The residual activity (CDK3 CCNE1 (human)) was 96.7%, the residual activity (INSRR (human)) was 95.5% and the residual activity (CSNK1G3 (human)) was 99%. It also gave a residual activity (EPHA6 (human)) of 93%, a residual activity (ULK3 (human)) of 86.4% and a residual activity (PRKCE (human)) of 99.6%. It also gave a residual activity (PASK (human)) of 82.1%, a residual activity (EPHA8 (human)) of 94.5% and a residual activity (RPS6KA1 KD1 KD2 (human)) of 99.2%. For the same compound, the residual activity (MARK4 (human)) was 105%, the residual activity (CSNK1A1 (human)) was 95.4% and the residual activity (CAMK2B (human)) was 101%. For the same compound, the residual activity (ITK (human)) was 100%, the residual activity (SRC (human)) was 104% and the residual activity (CHEK1 (human)) was 94.2%. The residual activity (TAOK1 (human)) was 94.3%, the residual activity (PDGFRB (human)) was 89.1% and the residual activity (MAPK3 (human)) was 106%. For the same compound, the residual activity (PRKG1 (human)) was 86.2% and 93.7%, the residual activity (STK25 (human)) was 92.5% and the residual activity (EGFR (human)) was 84.5%. It also gave a residual activity (ABL1 (human)) of 99.6%, a residual activity (CLK4 (human)) of 96% and a residual activity (RPS6KA2 KD1 KD2 (human)) of 92.5%. The residual activity (DYRK2 (human)) was 95.9%, the residual activity (NUAK2 (human)) was 124% and the residual activity (MYO3B (human)) was 99%.
